According to patent US12552825B2 (Zikani Therapeutics, Inc., priority 2019, dated 2026):
Values after ≈ are worked out from the molar mass of the structure shown.

How the values were obtained:
Assay type in all cases: cell-based
S. aureus MP-12 = assay: microbe, parasite or virus in culture; conditions: Staphylococcus aureus, MP12, read-out: MIC S. aureus MP-12
E. coli MP-4 = assay: MIC determination by CLSI broth dilution, E. coli MP-4; conditions: Escherichia coli, MP4, CLSI broth dilution; strain MP-4
K. pneumoniae MP-546 = assay: MIC determination by CLSI broth dilution, K. pneumoniae MP-546; conditions: Klebsiella pneumoniae, MP546, CLSI broth dilution; strain MP-546
P. aeruginosa MP-3 = assay: MIC determination by CLSI broth dilution, P. aeruginosa MP-3; conditions: Pseudomonas aeruginosa, MP3, strain MP-3
A. baumannii MP-15 = assay: MIC determination by CLSI broth dilution, A. baumannii MP-15; conditions: Acinetobacter baumannii, MP15, strain MP-15, read-out: MIC A. baumanii MP-15
K. pneumoniae MP-648 = assay: MIC determination by CLSI broth dilution, K. pneumoniae MP-648; conditions: Klebsiella pneumoniae, MP648, CLSI broth dilution; strain MP-648

Row | Compound | MIC (S. aureus MP-12) [µg/mL] | MIC (E. coli MP-4) [µg/mL] | MIC (K. pneumoniae MP-546) [µg/mL] | MIC (P. aeruginosa MP-3) [µg/mL] | MIC (A. baumannii MP-15) [µg/mL] | MIC (K. pneumoniae MP-648) [µg/mL]
1 | CO[C@]1(C)C[C@@H](C)CN(C)[C@@H](C(=O)N2CCNCC2)[C@H](C)OC(=O)C(C)(C)C(=O)[C@H](C)[C@H]1O[C@@H]1O[C@H](C)C[C@H](N(C)C)[C@H]1O [Compound 136, (2S,3R,6R,8R,9R,10R)-9-(((2S,3R,4S,6R)-4-(dimethylamino)-3-hydroxy-6-methyltetrahydro-2H-pyran-2-yl)oxy)-8-methoxy-2,4,6,8,10,12,12-heptamethyl-3-(piperazine-1-carbonyl)-1-oxa-4-azacyclotridecane-11,13-dione] | > 32 | > 32 | > 32 | > 32 | > 32 | –
2 | CO[C@]1(C)C[C@@H](C)CN(C)[C@@H](CN2CCN(S(=O)(=O)c3ccc(C)cc3)CC2)[C@H](C)OC(=O)C(C)(C)C(=O)[C@H](C)[C@H]1O[C@@H]1O[C@H](C)C[C@H](N(C)C)[C@H]1O [Compound 139, (2S,3S,6R,8R,9R,10R)-9-(((2S,3R,4S,6R)-4-(dimethylamino)-3-hydroxy-6-methyltetrahydro-2H-pyran-2-yl)oxy)-8-methoxy-2,4,6,8,10,12,12-heptamethyl-3-((4-tosylpiperazin-1-yl)methyl)-1-oxa-4-azacyclotridecane-11,13-dione] | 4 to 32 (≈ 5.21 to 41.7 µM) | > 32 | > 32 | > 32 | > 32 | –
3 | CO[C@]1(C)C[C@@H](C)CN(C)[C@@H](CN2CCN(S(=O)(=O)N(C)C)CC2)[C@H](C)OC(=O)C(C)(C)C(=O)[C@H](C)[C@H]1O[C@@H]1O[C@H](C)C[C@H](N(C)C)[C@H]1O [Compound 142, 4-(((2S,3S,6R,8R,9R,10R)-9-(((2S,3R,4S,6R)-4-(dimethylamino)-3-hydroxy-6-methyltetrahydro-2H-pyran-2-yl)oxy)-8-methoxy-2,4,6,8,10,12,12-heptamethyl-11,13-dioxo-1-oxa-4-azacyclotridecan-3-yl)methyl)-N,N-dimethylpiperazine-1-sulfonamide] | 4 to 32 (≈ 5.56 to 44.4 µM) | > 32 | > 32 | > 32 | > 32 | –
4 | CO[C@]1(C)C[C@@H](C)CN(C)[C@H](/C=C/CN2Cc3cccnc3C2)COC(=O)C(C)(C)C(=O)[C@H](C)[C@H]1O[C@@H]1O[C@H](C)C[C@H](N(C)C)[C@H]1O [Compound 152] | 4 to 32 (≈ 6.07 to 48.6 µM) | < 4 | – | > 32 | > 32 | 4 to 32 (≈ 6.07 to 48.6 µM)
5 | CO[C@]1(C)C[C@@H](C)CN(C)[C@H](/C=C/CN2CCCC2)COC(=O)C(C)(C)C(=O)[C@H](C)[C@H]1O[C@@H]1O[C@H](C)C[C@H](N(C)C)[C@H]1O [Compound 153] | 4 to 32 (≈ 6.56 to 52.5 µM) | < 4 | – | > 32 | > 32 | < 4
6 | CCN1CCN(C[C@H]2COC(=O)C(C)(C)C(=O)[C@H](C)[C@@H](O[C@@H]3O[C@H](C)C[C@H](N(C)C)[C@H]3O)[C@](C)(OC)C[C@@H](C)CN2C)CC1 [Compound 155, (3S,6R,8R,9R,10R)-9-(((2S,3R,4S,6R)-4-(dimethylamino)-3-hydroxy-6-methyltetrahydro-2H-pyran-2-yl)oxy)-3-((4-ethylpiperazin-1-yl)methyl)-8-methoxy-4,6,8,10,12,12-hexamethyl-1-oxa-4-azacyclotridecane-11,13-dione] | 4 to 32 (≈ 6.38 to 51 µM) | < 4 | – | > 32 | > 32 | 4 to 32 (≈ 6.38 to 51 µM)
7 | CO[C@]1(C)C[C@@H](C)CN(C)[C@@H](CN2CCN(C(C)C)CC2)COC(=O)C(C)(C)C(=O)[C@H](C)[C@H]1O[C@@H]1O[C@H](C)C[C@H](N(C)C)[C@H]1O [Compound 156, (3S,6R,8R,9R,10R)-9-(((2S,3R,4S,6R)-4-(dimethylamino)-3-hydroxy-6-methyltetrahydro-2H-pyran-2-yl)oxy)-3-((4-isopropylpiperazin-1-yl)methyl)-8-methoxy-4,6,8,10,12,12-hexamethyl-1-oxa-4-azacyclotridecane-11,13-dione] | 4 to 32 (≈ 6.24 to 49.9 µM) | < 4 | – | > 32 | > 32 | 4 to 32 (≈ 6.24 to 49.9 µM)
